Source: paper PMC8899577, “Targeting the anti-apoptotic Bcl-2 family proteins: machine learning virtual screening and biological evaluation of new small molecules” (Theranostics, 2022)

How the values were obtained:
Mcl-1 = Mcl-1 (Homo sapiens, UniProt Q07820); test: SPR binding to immobilized Mcl-1; conditions: analyte 0.3-30 µM
Method: (§1) FastStep experiments were performed with a SensiQ Pioneer apparatus. Bcl-2 immobilization on COOH5 sensorchips was carried out essentially as previously reported, [40]. All the experiments were carried out at 25 °C in degassed HEPES 20 mM, pH 7.4, NaCl 150 mM, 0.005% surfactant P20 + 2% DMSO (HBSP2%D). […] Each sensorgram is the average of at least three experiments. The decrease in Response Units (RU) after 165 s indicates analyte dissociation from the immobilized Bcl-2 upon HSBP2%D buffer injection. Control SPR experiments were carried out measuring sensorgrams on Bcl-xL and Mcl-1 (ligands) immobilized on COOH5 sensorchips as previously reported at 25 °C in degassed HBSP2%D buffer. […] Each sensorgram is the average of at least three experiments. The decrease in RU after 180 s indicates analyte dissociation from the immobilized ligands upon HSBP2%D buffer injection. Kinetic evaluation of the sensorgrams was carried out using the Qdat 4.0 program; best fittings were obtained with 2 sites and indicated in red (reported KD values refer to dissociation constants of the highest affinity site).
Figure 3 SPR analysis of the interaction between IS20 or IS21 and Bcl-xL and Mcl-1 proteins. SPR experiments were carried out measuring sensorgrams on Bcl-xL and Mcl-1 (ligands) immobilized on COOH5 sensorchips at 25 °C in degassed HBSP2%D buffer. IS20 and IS21 (analytes) were injected at a flow rate = 30 μL/min, at the following concentrations: 0.3 μM (only for Mcl-1 experiments); 1 μM; 3 μM; 10 μM; 30 μM. Each sensorgram is the average of at least three experiments. The decrease in RU (Response Units) after 180 s indicates analyte dissociation from the immobilized ligands upon HSBP2%D buffer injection. The fitted KD values for Bcl-xL are the following. IS20: 0.42 ± 0.09 μM and IS21: 0.51 ± 0.17 μM. The fitted KD values for Mcl-1are the following. IS20: 3.9 ± 0.30 μM and IS21: 1.16 ± 0.14 μM;

M14 cells [1] = test: Western blot of PARP1 cleavage, M14; assay type: cell-based, Human; conditions: 72 h
Method: (§2) Western blot analyses of total protein extracts were performed as previously described. Immunodetection was performed using antibodies directed to poly (ADP-ribose) polymerase (PARP; BD Biosciences San Diego, CA, USA), LC3B (Cell Signaling Technology, Danvers, MA), HSP72/73 (Calbiochem, EMD Biosciences, La Jolla, CA), Bcl-2 (SC-509, Santa Cruz Biotechnology Inc, Dallas, TX, USA), Bcl-xL (SC-271121, Santa Cruz Biotechnology Inc), Mcl-1 (SC-12756, Santa Cruz Biotechnology Inc) α-tubulin (Santa Cruz Biotechnology Inc) actin (Sigma-Aldrich, St. Louis, Missouri, USA). Anti-rabbit or anti-mouse immunoglobulin G-horseradish peroxidase-conjugated antibodies (Amersham Biosciences, Freiburg, Germany) were used as secondary antibody. Images were acquired by Image Lab Software (Bio-Rad, Hercules, CA, USA), using a ChemiDoc System instrument (Bio-Rad). The densitometric evaluation was performed using Image J software and normalized with relative controls.
Figure 5 Analysis of apoptosis induction by IS20 and IS21 in leukemia, melanoma and NSCLC cells. […] (A-F) Reported images are representative of two independent experiments with similar results. HSP72/73 or α-Tubulin are shown as loading and transferring control. (G) Flow cytometric quantification of cells in the subG1 peak of cell cycle distribution by propidium iodide staining in HL60 cell line treated with IS20 or IS21 (20 μM for 24 h) and in M14, H1299 and MDA-MB-231 cell lines treated with IS20 or IS21 (20 μM for 72 h). Data are reported as mean ± SD of three independent experiments. p-values were calculated between control (Ctrl) and treated cells, * p < 0.05. (H) Flow cytometric quantification of cells in the subG1 peak by propidium iodide staining in M14 and H1299 cell lines treated with IS20 or IS21 (20 μM, 72 h) in presence or absence of the pan caspase inhibitor z-VAD (50 μM). p-values were calculated between treated control (Ctrl) cells, # p < 0.01, ## p < 0.001 or between cells treated with IS20 or IS21 alone or in combination with z-VAD, * p < 0.05, ** p < 0.005. (G-H) Data are reported as mean of two (H) or three (G) experiments ± SD.

M14 cells [2] = test: Western blot of LC3B-I/LC3B-II (autophagy), M14; assay type: cell-based, Human; conditions: 72 h
Method: as §2
Figure 6 Analysis of autophagosome accumulation in M14 and H1299 cells after treatment with IS20 or IS21. Western blot analysis of LC3B-I and LC3B-II protein levels in (A) M14, and (B) H1299 cell lines untreated (Ctrl) or treated with IS20 or IS21 for 72 h at the indicated concentrations. (C) Western blot analysis of LC3B-I and LC3B-II levels in HL60 and U937 cell lines untreated (Ctrl) or treated with IS20 or IS21 (20 μM for 24 h). (A-C) Reported images are representative of two independent experiments with similar results. HSP72/73, Actin or α-Tubulin are shown as loading and transferring control. […] Ratio of LC3B-II on LC3B-I levels, after normalization on HSP72/73, Actin or α-Tubulin, is quantified by densitometric analysis. (D) (Upper panels) Representative images and (lower panels) relative quantification of fluorescence microscopic analysis of LC3B puncta positive cells in M14 EGFP-LC3B and H1299 EGFP-LC3B transfected cells, treated with IS20 or IS21 (20 µM for 72h). […] Cells with more than 10 puncta were considered autophagy-positive. p-values were calculated between untreated (Ctrl) and treated cells, * p < 0.05.

Bcl-2 = Bcl-2 (Homo sapiens, UniProt P10415); test: SPR binding to immobilized Bcl-2; conditions: SPR, 25 °C, 2-site fit, highest affinity site
Chain of Bcl-2 (P10415 whole entry): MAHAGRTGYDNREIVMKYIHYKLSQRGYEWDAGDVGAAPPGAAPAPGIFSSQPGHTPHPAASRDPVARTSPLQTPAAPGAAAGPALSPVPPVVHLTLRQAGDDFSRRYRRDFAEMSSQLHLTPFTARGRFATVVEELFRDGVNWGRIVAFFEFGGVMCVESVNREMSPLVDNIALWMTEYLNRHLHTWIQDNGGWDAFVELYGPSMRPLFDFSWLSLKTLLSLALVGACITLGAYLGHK
Method: as §1
Figure 2 SPR analysis of the interaction between putative inhibitors of Bcl-2 anti-apoptotic members and Bcl-2 protein. Bcl-2 was immobilized via amine coupling onto a COOH5 sensorchip; Bcl-2 family inhibitors (analytes) were injected at a flow rate = 100 μL/min, at the following concentrations. 0-30 s: 0.625 μM; 31-60 s: 1.25 μM; 61-90 s: 2.5 μM; 91-120 s: 5 μM; 121-150 s: 10 μM; 151-165 s: 20 μM. The increase in Response Units (RU) relative to baseline indicates complex formation between the immobilized Bcl-2 ligand and the analytes upon Bcl-2 family inhibitors injection. The decrease in RU after 165 s indicates analyte dissociation from the immobilized Bcl-2 upon buffer injection. Full fittings with 2 sites are indicated in red. The fitted KD values are the following.

Chain of Mcl-1 (Q07820 whole entry): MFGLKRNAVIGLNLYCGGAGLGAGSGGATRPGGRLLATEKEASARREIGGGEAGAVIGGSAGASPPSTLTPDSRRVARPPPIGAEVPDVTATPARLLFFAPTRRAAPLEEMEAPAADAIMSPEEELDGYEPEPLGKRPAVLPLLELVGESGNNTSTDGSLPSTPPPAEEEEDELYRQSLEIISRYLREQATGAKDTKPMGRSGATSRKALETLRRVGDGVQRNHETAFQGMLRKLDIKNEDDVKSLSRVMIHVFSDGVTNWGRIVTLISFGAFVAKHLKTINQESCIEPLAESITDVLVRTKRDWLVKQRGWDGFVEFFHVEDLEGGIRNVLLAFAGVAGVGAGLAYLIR

Row | Compound | PARP1 cleavage, M14 (M14 cells [1]) | Kd (Bcl-2) | further results
1 | CC1(C)CCC(CN2CCN(c3ccc(C(=O)NS(=O)(=O)c4ccc(NCC5CCOCC5)c([N+](=O)[O-])c4)c(Oc4cnc5[nH]ccc5c4)c3)CC2)=C(c2ccc(Cl)cc2)C1 [ABT-199, venetoclax, reference compound] | PARP1 cleavage |  | interaction with Mcl-1 (SPR) (Mcl-1): negligible interaction
2 | CC1(C)CCC(c2ccc(Cl)cc2)=C(CN2CCN(c3ccc(C(=O)NS(=O)(=O)c4ccc(N[C@H](CCN5CCOCC5)CSc5ccccc5)c(S(=O)(=O)C(F)(F)F)c4)cc3)CC2)C1 [ABT-263, navitoclax, reference compound] | PARP1 cleavage |  | ratio of LC3B-II on LC3B-I / LC3B-II protein level, M14 (M14 cells [2]): increased
3 | CC(C)(C)c1ccc(C=NN2CCN(Cc3ccccc3Cl)CC2)cc1 [IS1] |  | 480 ± 110 nM | 
4 | O=C(CN1CCN(Cc2ccccc2Cl)CC1)N/N=C/c1ccccc1C(F)(F)F [IS27] |  | 4600 ± 900 nM | 
5 | CC(C)(C)c1ccc(-c2nnc(SCc3ccccc3F)n2N)cc1 [IS29] |  | 3400 ± 1100 nM | 
6 | COc1ccc(-c2cc(C(F)F)nc(N3CCN(Cc4ccccc4C)CC3)n2)cc1OC [ISP] |  | 770 ± 140 nM | 
